Test results as given in patent US9193718B2, “Quinazoline derivative and application thereof” (FUJIAN INSTITUTE OF RESEARCH ON THE STRUCTURE OF MATTER, …, priority 2012, dated 2015).

Target: T1, Tyrosine kinase (EGFR) (Homo sapiens, UniProt P00533)
T1 construct: made in house
Test: EGFR tyrosine kinase inhibition by Enzyme-Linked Immunosorbent assay
Assay type: biochemical
Conditions: compound at a concentration of 100 μM; ATP 5 μM; substrate poly(Glu,Tyr)4:1
Description: Tyrosine kinase (EGFR) was expressed using a baculovirus expression system, and purified by using a Ni-NTA affinity chromatography. After tested, it was consistent with experimental standard. Poly(Glu,Tyr)4:1 (Sigma), Monoclonal Anti-Phosphotyrosine antibody PY99 (Santa Cruz), horseradish peroxidase-labeled goat anti-mouse IgG (Calbiochem), ATP, DTT, OPD (Amresco), microplates (Corning). Other reagents were all commercially available with analytical grade purity, which were not treated before use if no special instructions present. Isopropanol was dried with molecular sieves before use.
Quinazoline compounds represented by formula (I) and their pharmaceutically acceptable salts according to the present invention are used as EGFR inhibitors. The activity of the particularized compounds for inhibiting EGFR was determined by Enzyme-Linked Immunosorbent assay.
Detailed experimental procedure is as follows:
(1) Kinase reaction substrate poly(Glu,Tyr)4:1 was diluted to 20 μg/mL with potassium-free PBS, and the microplates were coated. After the reaction was for 12-16 h at 37° C., the liquid in the wells was removed.
(2) The plates were washed with T-PBS for three times, 10 min each time.
(3) The microplates were dried in an oven at 37.
(4) The samples to be tested were added into the wells of the coated microplates (wherein the samples to be tested were formulated to a 1×10^−2M stock solution with DMSO, and diluted to the desired concentration with reaction buffer before use. The resulted solution was added into the wells and then allowed to achieve the corresponding final concentration in 100 μL reaction system.
(5) the addition of ATP and tested tyrosine kinases
ATP solution diluted with reaction buffer (the final concentration of ATP is 5 μM) and the tested tyrosine kinases solution diluted with reaction buffer were added. The total volume of the reaction is 100 μL. Meanwhile the negative control wells and the control wells without enzyme were set up.
(6) The reaction system was placed in a wet box, and shaked for 1 hour at 37° C. shielding from light. After the reaction was complete, the plates were washed with T-PBS for three times.
(7) Antibody PY99 was added into each well (100 μL/well); and the plates were shaked for 30 min at 37° C. After the reaction was complete, the plates were washed with T-PBS for three times.
(8) 100 μL horseradish peroxidase-labeled goat anti-mouse IgG was added into each well, and the plates were shaked for 30 min at 37° C. The plates were washed with T-PBS for three times.
(9) 100 μL OPD developing liquid was added in each well, and was reacted for 1-10 min at room temperature shielding from light.
(10) 2M H2SO4 was added into each well to terminate the reaction. A490 value was determined using wavelength-tunable microplate reader. The inhibition ratio can be calculated by the following formula: […]
According to the above-described activity test method, the activity of inhibiting EGFR enzyme of the compounds represented by formula (I) or salts thereof were calculated.

EGFR inhibition rate (%) | Molecule
18.0% | c1ccc(-c2cc(COc3ncnc4ccccc34)on2)cc1 [Compound Q-1, 4-((3-phenyl-isoxazol-5-yl)-methoxy-)-quinazoline]
7.3% | COc1ccc(-c2cc(COc3ncnc4ccccc34)on2)cc1 [Compound Q-3]
25.8% | Clc1ccccc1-c1cc(COc2ncnc3ccccc23)on1 [Compound Q-4]
16.7% | Clc1ccc(-c2cc(COc3ncnc4ccccc34)on2)cc1 [Compound Q-5]
22.7% | Clc1ccc(-c2cc(COc3ncnc4ccccc34)on2)c(Cl)c1 [Compound Q-6]
15.7% | Brc1ccc(-c2cc(COc3ncnc4ccccc34)on2)cc1 [Compound Q-7]
30.7% | COc1cc2ncnc(OCc3cc(-c4ccccc4)no3)c2cc1OC [Compound Q-15, 6,7-dimethoxy-4-((3-phenyl-isoxazol-5-yl)-methoxy-)-quinazoline]
47.0% | COc1ccc(-c2cc(COc3ncnc4cc(OC)c(OC)cc34)on2)cc1 [Compound Q-17]
1.2% | COc1cc2ncnc(OCc3cc(-c4ccccc4Cl)no3)c2cc1OC [Compound Q-18]
14.5% | COc1cc2ncnc(OCc3cc(-c4ccc(Cl)cc4)no3)c2cc1OC [Compound Q-19]
29.8% | COc1cc2ncnc(OCc3cc(-c4ccc(Cl)cc4Cl)no3)c2cc1OC [Compound Q-20]
30.9% | COc1cc2ncnc(OCc3cc(-c4ccc(Br)cc4)no3)c2cc1OC [Compound Q-21]
20.4% | COCCOc1cc2ncnc(OCc3cc(-c4ccc(C)cc4)no3)c2cc1OCCOC [Compound Q-30, (6,7-bis(2-methoxyethoxy))-4-((3-(4-methylphenyl)-isoxazol-5-yl)-methoxy-)-quinazoline]
38.2% | COCCOc1cc2ncnc(OCc3cc(-c4ccc(OC)cc4)no3)c2cc1OCCOC [Compound Q-31]
11.8% | COCCOc1cc2ncnc(OCc3cc(-c4ccccc4Cl)no3)c2cc1OCCOC [Compound Q-32]
7.8% | COCCOc1cc2ncnc(OCc3cc(-c4ccc(Cl)cc4Cl)no3)c2cc1OCCOC [Compound Q-34, (6,7-bis(2-methoxyethoxy))-4-((3-(2,4-dichlorophenyl)-isoxazol-5-yl)-methoxy-)-quinazoline]
6.4% | COCCOc1cc2ncnc(OCc3cc(-c4ccc(Br)cc4)no3)c2cc1OCCOC [Compound Q-35]
14.1% | (6,7-bis(2-methoxyethoxy))-4-((3-(4-chlorophenyl)-isoxazol-5-yl))-methoxy-)-quinazoline [Compound Q-33]

Molecule | EGFR inhibition rate (%)
COCCOc1cc2ncnc(OCc3cc(-c4ccccc4)no3)c2cc1OCCOC [Compound Q-29, (6,7-bis(2-methoxyethoxy))-4-((3-phenyl-isoxazol-5-yl)-methoxy-)-quinazoline] | 27.7%
